Data on 1 compound can be found in ChEMBL document CHEMBL5537136 (J Med Chem, 2024).

One may read the AUC(0-inf) as total exposure, with the tail of the curve extrapolated. A low value points to low exposure. One may read the clearance as the rate of elimination divided by the concentration. Higher therefore signals a high capacity for elimination. What is called IC50 is the concentration that gives 50% inhibition. As a reminder, the Tmax is the time at which the peak concentration occurs.

Structures are written as SMILES. Calls of active or inactive are those of the source. The calls are words filed in the database; no cut-off is given here. Some results are limits rather than exact numbers.

Data set [1] can be described thus: AUC (0 to infinity) in ICR mouse at 10 mg/kg, IG measured upto 24 hrs by LC-MS/MS analysis. It counts as ADME, organism-based. To be noted: in vivo, po.
Data set [2] in a line: Clearance in ICR mouse at 1 mg/kg, iv measured upto 24 hrs by LC-MS/MS analysis. In kind it is ADME, organism-based. To be noted: in vivo.
Data set [3] concerns CT26. The data set can be described thus: Antitumor activity in immunocompetent Balb/c mouse CT26 cell bearing mouse model assessed as change in tumor cell morphology at 6.25 to 25 mg/kg, IG treated twice a day measured after 14 days by hematoxylin and eosin staining based assay. In kind it is functional, organism-based. Conditions: dose lower 6.25 mg/kg, dose upper […], time 14.0 day.

Data set [4] has as its target T1, Protein mono-ADP-ribosyltransferase PARP12 (Homo sapiens, UniProt Q9H0J9).
T1 sequence (Q9H0J9 whole entry): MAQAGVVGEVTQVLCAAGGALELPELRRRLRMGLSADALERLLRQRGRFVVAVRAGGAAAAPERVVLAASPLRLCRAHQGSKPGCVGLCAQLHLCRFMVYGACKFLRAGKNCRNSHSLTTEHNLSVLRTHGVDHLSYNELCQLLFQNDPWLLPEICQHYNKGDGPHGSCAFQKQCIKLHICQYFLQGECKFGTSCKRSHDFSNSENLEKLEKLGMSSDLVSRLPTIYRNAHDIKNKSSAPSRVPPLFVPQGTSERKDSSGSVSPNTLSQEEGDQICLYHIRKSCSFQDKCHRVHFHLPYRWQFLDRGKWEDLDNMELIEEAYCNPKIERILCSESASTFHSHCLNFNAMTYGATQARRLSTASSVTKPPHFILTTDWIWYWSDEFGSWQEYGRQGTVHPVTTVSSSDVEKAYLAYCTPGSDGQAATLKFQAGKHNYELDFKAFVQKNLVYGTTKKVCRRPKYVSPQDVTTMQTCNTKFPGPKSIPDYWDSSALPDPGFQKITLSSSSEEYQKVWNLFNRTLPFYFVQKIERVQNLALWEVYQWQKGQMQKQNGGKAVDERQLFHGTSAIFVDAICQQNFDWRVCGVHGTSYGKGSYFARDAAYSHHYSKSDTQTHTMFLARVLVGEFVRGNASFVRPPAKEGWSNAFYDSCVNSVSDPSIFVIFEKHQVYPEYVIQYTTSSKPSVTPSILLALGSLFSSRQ
Briefly: Inhibition of PARP12 (unknown origin) measured after 1 hr incubation by microplate reader assay.

Data set [5] has as its target Poly [ADP-ribose] polymerase 2 (Homo sapiens, UniProt Q9UGN5). The data set can be described thus: Inhibition of PARP2 (unknown origin) measured after 1 hr incubation by microplate reader assay.
Data set [6] in a line: Toxicity in Balb/c mouse bearing mouse CT26 cells assessed as morphological changes in heart at 6.25 to 25 mg/kg, IG measured after 14 days by hematoxylin and eosin staining based assay. It counts as organism-based. To be noted: in vivo, po, 336 h, dose 6.25-25 mg/kg, time 14 day.
In data set [7] the target is CYP3A4/5 (Homo sapiens, UniProt P08684+P20815). Briefly: Inhibition of CYP3A4/5 (unknown origin). In kind it is ADME, protein assay.
For data set [8], the system named is CT26. Briefly: Antitumor activity against mouse CT26 cells implanted in Balb/c mouse assessed as increase in infiltration of CD3 positive CD4 positive T lymphocytes in tumors at 25 mg/kg, IG measured after 14 days by flow cytometry. In kind it is functional, organism-based. To be noted: time 14.0 day.
Data set [9] is described as follows: Tmax in ICR mouse at 1 mg/kg, iv measured upto 24 hrs by LC-MS/MS analysis. It counts as ADME, organism-based. Conditions: in vivo.
Data set [10] concerns the target T2, Poly [ADP-ribose] polymerase tankyrase-1 (Homo sapiens, UniProt O95271).
T2 sequence (O95271 whole entry): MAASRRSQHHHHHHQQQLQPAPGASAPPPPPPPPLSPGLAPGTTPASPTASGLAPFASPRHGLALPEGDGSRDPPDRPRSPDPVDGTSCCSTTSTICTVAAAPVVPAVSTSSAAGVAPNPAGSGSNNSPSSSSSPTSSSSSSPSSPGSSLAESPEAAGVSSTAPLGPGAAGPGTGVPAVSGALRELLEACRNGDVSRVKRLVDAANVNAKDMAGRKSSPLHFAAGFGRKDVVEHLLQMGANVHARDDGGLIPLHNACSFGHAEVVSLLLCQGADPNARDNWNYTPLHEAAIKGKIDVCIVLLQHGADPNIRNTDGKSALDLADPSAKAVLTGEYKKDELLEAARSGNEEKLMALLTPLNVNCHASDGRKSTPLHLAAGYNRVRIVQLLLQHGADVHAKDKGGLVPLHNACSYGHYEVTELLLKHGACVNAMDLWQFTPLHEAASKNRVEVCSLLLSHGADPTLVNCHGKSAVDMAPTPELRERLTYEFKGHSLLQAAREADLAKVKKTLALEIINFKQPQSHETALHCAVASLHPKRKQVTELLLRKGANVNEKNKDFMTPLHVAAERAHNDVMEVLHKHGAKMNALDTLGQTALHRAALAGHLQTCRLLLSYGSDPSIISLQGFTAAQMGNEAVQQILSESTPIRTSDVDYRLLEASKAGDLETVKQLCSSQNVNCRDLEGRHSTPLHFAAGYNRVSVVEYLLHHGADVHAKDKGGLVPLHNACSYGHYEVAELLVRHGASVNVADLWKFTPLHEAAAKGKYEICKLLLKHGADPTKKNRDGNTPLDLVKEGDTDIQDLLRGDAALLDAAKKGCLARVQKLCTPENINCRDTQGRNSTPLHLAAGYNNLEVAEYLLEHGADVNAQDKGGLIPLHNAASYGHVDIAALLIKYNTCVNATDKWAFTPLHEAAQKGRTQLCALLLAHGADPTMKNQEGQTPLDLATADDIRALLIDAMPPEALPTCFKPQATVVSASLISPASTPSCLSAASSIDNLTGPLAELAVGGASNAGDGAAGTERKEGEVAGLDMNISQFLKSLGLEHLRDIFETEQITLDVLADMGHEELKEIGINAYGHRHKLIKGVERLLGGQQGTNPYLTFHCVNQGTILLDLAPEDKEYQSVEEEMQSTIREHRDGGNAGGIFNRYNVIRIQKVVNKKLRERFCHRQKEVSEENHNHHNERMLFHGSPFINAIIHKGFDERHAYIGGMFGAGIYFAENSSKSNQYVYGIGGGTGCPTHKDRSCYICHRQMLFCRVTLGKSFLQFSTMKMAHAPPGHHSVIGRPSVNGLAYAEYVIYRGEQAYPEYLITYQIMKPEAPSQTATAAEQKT
The data set can be described thus: Inhibition of TNKS1 (unknown origin) measured after 1 hr incubation by microplate reader assay.

Data set [11] is described as follows: Toxicity in Balb/c mouse bearing mouse CT26 cells assessed as morphological changes in liver at 6.25 to 25 mg/kg, IG measured after 14 days by hematoxylin and eosin staining based assay. It counts as organism-based. To be noted: in vivo, po, 336 h, dose 6.25-25 mg/kg, time 14 day.
The subject of data set [12] is CT26. The data set can be described thus: Induction of anti-tumor immunity in mouse CT26 cells assessed as increase in IFN-beta mRNA expression incubated for 2 days by quantitative real-time PCR analysis. It counts as functional, cell-based. Conditions: dose 0.04-0.44 µM, time 2.0 day. A general note: Quantitative PCR measures a nucleic acid by following its amplification.

The nature of data set [13]: Tmax in ICR mouse at 10 mg/kg, IG measured upto 24 hrs by LC-MS/MS analysis. Conditions: in vivo, po. In kind it is ADME, organism-based.
Data set [14] has as its system CT26. Briefly: Antitumor activity against mouse CT26 cells implanted in Balb/c mouse assessed as increase in infiltration CD8 positive T cells in tumors at 25 mg/kg, IG measured after 14 days by flow cytometry. It counts as functional, organism-based. To be noted: time 14.0 day. In general terms: Flow cytometry measures light scatter and fluorescence of single cells or particles in a stream.

Sequence of Poly [ADP-ribose] polymerase 2 (Q9UGN5 whole entry): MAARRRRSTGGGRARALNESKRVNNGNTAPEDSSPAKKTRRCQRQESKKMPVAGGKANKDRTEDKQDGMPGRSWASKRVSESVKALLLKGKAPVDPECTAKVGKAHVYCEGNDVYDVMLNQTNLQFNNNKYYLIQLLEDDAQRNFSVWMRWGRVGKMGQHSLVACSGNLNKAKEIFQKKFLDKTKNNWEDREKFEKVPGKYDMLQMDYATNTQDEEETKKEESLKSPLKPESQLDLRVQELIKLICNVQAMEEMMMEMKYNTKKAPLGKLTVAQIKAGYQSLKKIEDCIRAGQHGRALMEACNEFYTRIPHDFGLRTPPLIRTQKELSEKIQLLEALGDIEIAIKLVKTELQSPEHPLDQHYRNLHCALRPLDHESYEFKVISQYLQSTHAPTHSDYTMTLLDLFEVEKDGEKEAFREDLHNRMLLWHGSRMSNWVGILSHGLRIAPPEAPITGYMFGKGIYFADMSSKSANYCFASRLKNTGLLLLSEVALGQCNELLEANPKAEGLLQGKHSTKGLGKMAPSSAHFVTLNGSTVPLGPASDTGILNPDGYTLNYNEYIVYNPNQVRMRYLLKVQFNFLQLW

For the compound `C[C@@H](C(=O)N1CCN(c2ncc(C(F)(F)F)cn2)CC1)n1cc2cccc(C(N)=O)c2n1`, the total exposure AUC(0-inf) in data set [1] was found to be 17000 ng·h/mL. The compound also showed a clearance in data set [2] of 9.62 mL/min/kg. Moreover, the result in data set [3], in [8] and in data set [14] was Active. Further, the IC50 in data set [4] is 664 nM; in data set [5], 303 nM; in data set [7], over 30000 nM; in data set [10], 901 nM. Further, the Activity entry in [6] is “Non-Toxic”; in data set [11], “Non-Toxic”; in [12], “Dose-Dependent Effect”. Further, the Tmax in data set [9] is 4.8 min; in data set [13], 30 min.
